From patent US20150299648A1, “IMPROVED CULTIVATION MEDIA AND PROCESS FOR IMPROVED PROTEIN PRODUCTION BY PICHIA STRAINS” (priority 2012, published 2015)
Entries after “also recorded” stand apart in the source; their conditions may differ.

Legend:
[1] = test system: P. pastrois strain yGLY21058; test: Fermentability of sugars or sugar alcohols on M agar plate; assay type: cell-based, Pichia pastoris; conditions: 6 days at 30° C.; for Growth on M agar: single carbon source 1% w/v; for Fermentability category from colony formation on the plate: minimal agar plate
Description: The 1 mL of RCB (Research Cell Bank in 20% of glycerol) for P. pastrois strain yGLY21058 producing glycosylated insulin precursor (GIP) was inoculated in 200 mL of Seed medium (4% glycerol, 1% yeast extract, 2% soytone, 1.34% YNB without amino acids, 0.23% K2HPO4, 1.19% KH2PO4, 8 μg/L biotin) and cultivated for 48 h at 24° C. The cell pellet was harvested by centrifugation at 4,000 rpm for 10 min and re-suspended with PBS buffer (pH 7.4) to wash the cell twice. The 0.1 mL of cell suspension with wash buffer was transferred and spread onto the minimal agar plate containing each sugar or sugar alcohol (1% w/v), which is listed in Table 1.
YPD (1% yeast extract, 2% yeast peptone, and 1% glucose) agar plate was used for the positive control and a minimal agar plate without carbon sources (M) was used for negative control. Growth of Pichia pastoris on M agar plate containing single carbon source was categorized as no (−), slow (+), moderate (++), and fast (+++) colony formation for 6 days in Table 1.

[2] = Osmolality of sugar and sugar alcohol solutions (osmometer); assay type: physicochemical; conditions: 500 mM in water
Description: The sugar and sugar alcohol solutions used as osmoprotectant supplements were prepared at 500 mM in water and their osmolalities were measured using Osmometer (Multi-somotte, Model 2430, Precision Systems Inc, MA, USA). The osmolality of solution was directly proportional to the concentration of component in solution. For instance there was a linear relationship between sorbitol concentration (mM) and osmolality of the solution (mOsm/kg) as shown in FIG. 1A. The osmolalities of maltitol, sorbitol, glycerol, and glucose at 500 mM in water were 590±4, 544±3, 541±3, and 568±0 mOsm/kg respectively (FIG. 1B). The osmolaties of sorbose, mellibiose, ribose, quinic acid and myo-inositol at 500 Mm in water were (480±5), (500±5), (470±5), (480±5) AND (510±10), respectively.

[3] = test system: P. pastoris YGLY 21058 strain; test: Fermentability of sorbitol and maltitol determined by HPLC; assay type: cell-based, Pichia pastoris; conditions: BSGY; maltitol 50 g/L; methanol induction phase
Description: The P. pastoris YGLY 21058 strain was cultivated in 1 L bioreactor and 50 g/L of maltitol was mixed in BSGY medium. The samples were taken at the beginning of fermentation, at the end of glycerol fed-batch before adding maltitol, and two different time-points in methanol induction phase, as shown in FIG. 3. The supernatant was separated by the centrifugation at 13,000 rpm for 1 minutes using micro-centrifuge. The samples properly diluted with distilled water were filtered using 0.2 μm-filter and the residual concentrations of sorbitol and maltitol were determined by HPLC using AMINEX HPX-87H column. The residence times (RTs) for sorbitol and maltitol were 11.5 and 9.3 min respectively. The data were shown in FIG. 3 as two independent runs of cultivation.

[4] = test system: P. pastoris YGLY21058 strain producing glycosylated insulin precursor (GIP); test: Screening of sugars and sugar alcohols as osmoprotectants in fed-batch cultivation; assay type: cell-based, Pichia pastoris; conditions: for Intact GIP molecule after 80 h-induction (SDS-PAGE): 50 g/L in initial batch medium of BSGY; for Index of cell lysis (double stranded DNA released into culture medium): 50 g/L in initial batch BSGY, 80 h of induction
Description: The P. pastoris YGLY21058 strain was cultivated in 1 L glass bioreactors (DASGIP, Germany). For fermentation in 1 L bioreactor, a vial (1 mL) of RCB (Research Cell Bank) was inoculated into 200 mL of Seed medium in 1 L-baffled flask. The culture incubated at 24° C., while shaking on an orbital shaker at 180 rpm for 48±4 h. The bioreactor was inoculated with a 10% volumetric ratio of seed to initial BSGY medium. Cultivation conditions were following: temperature set at 24±0.5° C., pH controlled at 6.5±0.1 with 30% ammonium hydroxide, dissolved oxygen was maintained at 20% of saturation by cascading agitation rate on the addition of pure oxygen to the fixed airflow rate of 0.7 vvm. After depletion of the initial glycerol (4%), a 50% glycerol solution containing 12.5 mL/L of PTM1 salts (6.5 g FeSO4.7H2O, 2.0 g ZnCl2, 0.6 g CuSO4.5H2O, 3.0 g MnSO4.7H2O, 0.5 g CoCl2.6H2O, 0.2 g NaMoO4.2H2O, 0.2 g biotin, 80 mg NaI, 20 mg H3BO4 per L) was fed constantly at an initial rate of 0.08 h^−1 for 8 h. Induction was initiated after a 30 min starvation phase when methanol was fed. Methanol was fed constantly starting at 1.33 g/L/h under methanol limited condition. Agitation speed was changed from cascade mode with agitation speed and pure oxygen.
For comparisons, each sugar or sugar alcohol was added at 50 g/L in initial batch medium of BSGY. In case of control without sugar supplementation (BSGY medium only), glycosylated insulin precursor (GIP) was detectable at 58 h of induction, but not detected at 80 h of induction due to most likely proteolytic degradation caused by heavy cell lysis (Lanes 1 and 2 of FIG. 2 A).

Compound | Growth on M agar [1] | Osmolality of solution [2] [mOsm/kg] | Consumption / fermentability in fed-batch fermentation (residual concentration by HPLC) [3] | Fermentability category from colony formation on the plate [1] | Intact GIP molecule after 80 h-induction (SDS-PAGE) [4] | Index of cell lysis (double stranded DNA released into culture medium) [4] | Robustness of Pichia production strains ([4]; methanol induction phase of cultivation)
OC[C@@H](O)[C@@H](O)[C@H](O)[C@@H](O)CO [D-Sorbitol] | +++ | 544±3 | actively metabolized; also recorded: highly fermentable |  |  |  | 
OC[C@H]1O[C@H](OCC2O[C@@H](O)[C@H](O)[C@@H](O)[C@@H]2O)[C@H](O)[C@@H](O)[C@H]1O (stereo partly drawn) [D-Melibiose] | + | 500±5 |  | very slow colony formation | intact GIP molecule was maintained |  | 
OCC(O)CO [Glycerol] | +++ | 541±3 |  |  |  |  | 
O=C[C@H](O)[C@@H](O)[C@H](O)CO [D-Xylose] | + |  |  | very slow colony formation |  |  | 
O=C(O)[C@H](O)[C@@H](O)[C@H](O)[C@H](O)CO [D-Gluconate] | + |  |  | very slow colony formation |  |  | 
OC[C@H]1O[C@H](O[C@H]2O[C@H](CO)[C@@H](O)[C@H](O)[C@H]2O)[C@H](O)[C@@H](O)[C@@H]1O [α,α-Trehalose] | ++ |  |  |  |  |  | 
O=C[C@@H](O)[C@H](O)[C@H](O)CO [D-Arabinose] | − |  |  | strict non-fermentable substrates | intact GIP molecule was maintained | much lower than that of control | 
O=C[C@H](O)[C@H](O)[C@H](O)CO [D-Ribose] | + | 470±5 |  | very slow colony formation | intact GIP molecule was maintained | much lower than that of control | 
OC[C@H]1O[C@H](O[C@H]2[C@H](O)[C@@H](O)[C@H](O)O[C@@H]2CO)[C@H](O)[C@@H](O)[C@@H]1O [D-Maltose] | − |  |  | strict non-fermentable substrates |  |  | significantly improved the robustness
O[C@H]1[C@H](O)[C@@H](O)[C@H](O)[C@@H](O)[C@H]1O [myo-Inositol] | + | 510±10 |  | very slow colony formation | intact GIP molecule was maintained | much lower than that of control | 
O=C(O)[C@]1(O)C[C@@H](O)[C@@H](O)[C@H](O)C1 [D-Quinic acid] | − | 480±5 |  | strict non-fermentable substrates |  |  | 
OC[C@@H](O)[C@H](O)[C@@H](O)CO [Xylitol] | − |  |  | strict non-fermentable substrates |  |  | 
Inulin | + |  |  | very slow colony formation |  |  | 
OC[C@H]1O[C@H](OC[C@H]2O[C@H](O[C@]3(CO)O[C@H](CO)[C@@H](O)[C@@H]3O)[C@H](O)[C@@H](O)[C@@H]2O)[C@H](O)[C@@H](O)[C@H]1O [D-Raffinose] | ++ |  |  |  |  |  | 
O=C(CO)[C@@H](O)[C@H](O)[C@@H](O)CO [L-Sorbose] | + | 480±5 |  | very slow colony formation | intact GIP molecule was maintained |  | 
O=C1O[C@H](CO)[C@@H](O)[C@H](O)[C@H]1O [D-Glucono-1,5-lactone] | − |  |  | strict non-fermentable substrates |  |  | 
OC[C@H](O)C(O)[C@@H](O)CO [L-Arabitol] | − |  |  | strict non-fermentable substrates |  |  | 
O=C[C@H](O)[C@@H](O)[C@H](O)[C@H](O)CO [D-Glucose] | +++ | 568±0 |  |  |  |  | 
OC[C@@H](O)[C@@H](O)[C@@H](O)CO [D-Ribitol] | − |  |  | strict non-fermentable substrates |  |  | 
